Reference: US5124351A, “Pharmaceutical compositions for the treatment of cancers susceptible to treatment with the copper complex of S-(methylthio)-DL-homocysteine or the L-enantimorph thereof” (The United States of America as represented by the …, priority 1989, dated 1992)
Like-named read-outs stand apart in the source and are kept apart here.

How the values were obtained:
L1210 cells [1] = assay: Inhibition of growth of L1210 cells in culture (growth fraction); format: cell-based, murine; settings: for protection from growth inhibition by copper-SMETH: copper-SMETH 15 and 30 μM; for potentiation of SMETH by other metal ions: 10 μM; for stereospecificity result with 10 μM copper sulfate: 10 μM instead of 50 μM copper; for IC50: potentiation of growth inhibition by DL-SMETH 75 or 100 μM, estimated by interpolation, read-out: Conc. for 50% further inhibition; for activity at 50 µM: L1210, L-SMETH 50 μM, read-out: growth (percent of control)
Procedure: Cytotoxicity of SMETH was assessed as follows. Cells were harvested at mid-log phase (8-10×10^5 cells/ml) washed with fresh growth medium and resuspended at 1×10^5 cells per ml as determined by a model ZBI Coulter Counter (Coulter Electronics, Hialeah, Fla.). Suspensions (7 ml) were added to 25 cm^2 Corning flasks, and SMETH, 20 mM in water, with or without copper sulfate, 2 mM in water were added as dilutions in water at no greater than 10 μl/ml of the cell suspension.
(§1) Cells were grown at 37° C. for designated times in tightly stoppered flasks and cell density was determined as indicated above. Cell volume distribution was monitored with a C1000 Channelyzer with standard size latex particles (Coulter) as reference. The results are expressed as growth fraction (N--No/No) or as percent growth fraction compared to appropriate controls.
(The cells also were incubated for 40 hours).
1 with S-(methylthio)-DL-homocysteine DL-SMETH, (See curve .smallcircle.--.smallcircle. in FIG. 4) and with the pure L-enantiomorph, L-SMETH, (See curve -- in FIG. 4).

L1210 cells [2] = assay: Cell volume of L1210 cells (Channelyzer); format: cell-based, murine; settings: growth inhibition
Procedure: as §1
(To obtain the data in FIG. 5, the cells were incubated with S-(methylthio)-L-homocysteine 15 μM, (curve .smallcircle.--.smallcircle.) and 30 μM (curve -- )together with their corresponding concentrations of copper sulfate). […] To obtain the data in FIG. 6, the cells were incubated for 14 hours in the medium described in the above section entitled Growth And Its Inhibition In Cell Culture, but containing only 1 mM glutamine, 1/2 the normal concentration. […] At the end of the incubation, the cell density in the inhibited culture was determined, and &he entire population centrifuged for analysis. An aliquot containing an equal number of cells from the control culture was removed for comparison, and both samples processed and analyzed as described in the above section entitled Analysis of Nucleoside Triphosphate Pools. […]
To obtain the data in FIG. 7, cells were incubated under standard conditions with S-(methylthio)-L -homocysteine and copper sulfate, each 15 μM, and cell volume monitored during the course of the incubation. […]

endothelial cell = settings: via copper catalyzed hydrogen peroxide generation; cited from earlier work
methionine metabolism = settings: via its adenosyl derivative; cited from earlier work
purine biosynthesis = settings: literature; cited from earlier work
[3] = test system: L1210 cells in primary culture; assay: Growth of L1210 cells in primary culture (obtained directly from the mouse) with copper; format: cell-based
Procedure: (The cells also were incubated for 40 hours). (See FIG. 3 of Mohindru, A., Fisher, J. M., and Rabinovitz, M. "2,9-Dimethyl-1,10-phenanthroline (neocuproine): A Potent, Copper-dependent Cytotoxin With Anti-tumor Activity.)" A concentration of 10 μM was more than adequate as a potentiating dose, but at this concentration other metal ions (Zn^++, Mn^++, CO^++, Ni^++, Cr^+++) were ineffective. […] Such cells fail to grow unless supplemented with an appropriate mercaptan or disulfide (See curve .smallcircle.--.smallcircle. in FIG. 3). […] Thus, both the organic and inorganic moieties of this invention show high specificity in this inhibition.

lymphoblasts = settings: with added adenosine and deoxycoformycin; cited from earlier work
[4] = Cecil and McPhee; cited from earlier work
cellular methylations = settings: cited from earlier work

O=c1ccn([C@@H]2O[C@H](CO)[C@@H](O)[C@H]2O)c(=O)[nH]1 [Uridine]
protection from growth inhibition by copper-SMETH (L1210 cells [1]): ineffective in such protection

[Ni+2] [Ni^++]
potentiation of SMETH by other metal ions (L1210 cells [1]): ineffective

[Zn+2] [Zn^++]
potentiation of SMETH by other metal ions (L1210 cells [1]): ineffective

O=S(=O)([O-])[O-].[Cu+2] [copper ion, copper sulfate]
toxicity of the ion itself (L1210 cells [1]; copper ion alone, at much higher levels than micromolar potentiating levels): non -toxic itself at much higher levels
potentiating dose of copper ion (L1210 cells [1]; with SMETH, 40 hours, "more than adequate"): ≤ 10 µM

CSSCCC(N)C(=O)O (racemic) [DL-SMETH, S-(methylthio)-DL-homocysteine]
inhibition of cellular proliferation (L1210 cells [1]): potent inhibitor of cellular proliferation
stereospecificity result with 10 μM copper sulfate (L1210 cells [1]): nearly identical results
range of inhibitory concentration of SMETH with copper ion (L1210 cells [1]; 40 hours, copper ion present): both reduced and narrowed in the presence of copper ion
percent inhibition (L1210 cells [1]; DL-SMETH 75 μm alone): 46%
percent inhibition (L1210 cells [1]; DL-SMETH 75 μm plus adenosine 10 μm, deoxycoformycin 20 μm): 46%
minimal effective concentration (L1210 cells [1]; Mus musculus, L1210, 40 hours, without copper, read-out: threshold level): 25 µM
cytotoxicity to L1210 cells (L1210 cells [1]; alone, 40 hours): cytotoxic to L1210 cells in culture when present at a broad range of micromolar concentrations
relative activity of racemic form (vs D-SMETH as printed) (L1210 cells [1]; copper ion 50 μM): half as active as D-SMETH
effect of copper ion on inhibition by SMETH (L1210 cells [1]; threshold SMETH 25 μM with micromolar copper ion, 40 hours): completely inhibitory concentration
cell volume change over a two day period (L1210 cells [2]): progressive increase in cell volume

CSCC[C@H](N)C(=O)O [L-Methionine]
IC50 (L1210 cells [1]): 2000 µM

[Co+2] [CO^++]
potentiation of SMETH by other metal ions (L1210 cells [1]): ineffective

Nc1nc2c(ncn2[C@@H]2O[C@H](CO)[C@@H](O)[C@H]2O)c(=O)[nH]1 [guanosine]
protection from growth inhibition by copper-SMETH (L1210 cells [1]): ineffective in such protection

N[C@@H](CCS)C(=O)O [Homocysteine]
endothelial cell damage (endothelial cell): promote endothelial cell damage
toxicity by blocking methionine metabolism (methionine metabolism): toxic by blocking methionine metabolism

[Cr+3] [Cr^+++]
potentiation of SMETH by other metal ions (L1210 cells [1]): ineffective

N[C@H](C(=O)O)[C@@H]1CC(Cl)=NO1 [acivicin, (alphaS,5S)-alpha-amino-3-chloro-4,5-dihydro-5-isoxazoleacetizacid]
sites blocked in purine biosynthesis (purine biosynthesis): also block some sites in purine biosynthesis

DL-Isopropionine
IC50 (L1210 cells [1]): 2000 µM

[Mn+2] [Mn^++]
potentiation of SMETH by other metal ions (L1210 cells [1]): ineffective

OCCSSCCO [Hydroxyethyl Disulfide (HEDS), Hydroxyethyl Disulfide]
growth promotion and its inhibition by copper ([3]; high copper concentrations): promoted growth, but this was inhibited by high copper concentrations

CC(C)C[C@H](N)C(=O)O [L-Leucine]
IC50 (L1210 cells [1]): 1000 µM

CCSC[C@H](N)C(=O)O [S-Ethyl-L-cysteine]
IC50 (L1210 cells [1]): 1000 µM

[N-]=[N+]=CC(=O)CC[C@H](N)C(=O)O [diazo-oxo-norleucine, 6-diazo-5-oxo-norleucine]
sites blocked in purine biosynthesis (purine biosynthesis): also block some sites in purine biosynthesis

CSSCC[C@H](N)C(=O)O [L-SMETH, S-(methylthio)-L-homocysteine]
stereospecificity result with 10 μM copper sulfate (L1210 cells [1]): nearly identical results
activity at 50 µM (L1210 cells [1]; Mus musculus, glutamine 0.5 mM): 15%
activity at 50 µM (L1210 cells [1]; Mus musculus, glutamine 1.0 mM): 31%
activity at 50 µM (L1210 cells [1]; Mus musculus, glutamine 2.0 mM): 58%
activity at 50 µM (L1210 cells [1]; Mus musculus, glutamine 4.0 mM): 98%

[N-]=[N+]=CC(=O)OC[C@H](N)C(=O)O [azaserine]
sites blocked in purine biosynthesis (purine biosynthesis): also block some sites in purine biosynthesis

CSSC[C@H](N)C(=O)O [4-thiamethionine, S-(methylthio)-L-cysteine]
growth support with copper ion ([3]; 4TM 50 μM): supported growth which was independent of copper ion concentration
cytotoxicity in the presence of copper ([3]; L1210 primary culture): not cytotoxic in the presence of copper
protection from growth inhibition by copper ([3]; L1210 primary culture): protected L1210 cells in primary culture from growth inhibition by copper

N[C@H]1CCSC1=O [L-Homocysteine Thiolactone]
percent inhibition (L1210 cells [1]; L-homocysteine thiolactone 200 μM plus adenosine 10 μM, deoxycoformycin 20 μM): 39%
inhibition at 200 µM (L1210 cells [1]; Mus musculus, L1210, L-homocysteine thiolactone 200 μM alone, read-out: percent inhibition): 5%
growth block (lymphoblasts): can block growth

CSSCC[C@@H](N)C(=O)O [D-SMETH]
activity of D-SMETH (L1210 cells [1]; 50 μM with 50 μM copper ion): completely inactive

Nc1ncnc2c1ncn2[C@@H]1O[C@H](CO)[C@@H](O)[C@H]1O [Adenosine]
toxicity of adenosine (L1210 cells [1]; 10 μM alone): not toxic to L1210 cells
toxicity of adenosine with L-homocysteinethiolactone (L1210 cells [1]; 10 μM with non-toxic concentration of L-homocysteinethiolactone): toxic when added together with a non-toxic concentration of L-homocysteinethiolactone
effect of adenosine on SMETH potency (L1210 cells [1]; toxic dose of SMETH): did not increase the potency of a toxic dose of SMETH

NC(=O)CC[C@H](N)C(=O)O [Glutamine]
protection against SMETH and SMETH plus Cu++ (L1210 cells [1]; glutamine, millimolar concentrations): protected cells against SMETH and SMETH plug Cu^++

CCCC[C@H](N)C(=O)O [L-Norleucine]
IC50 (L1210 cells [1]): 2500 µM

N[C@@H](CCSSCC[C@H](N)C(=O)O)C(=O)O [homocystine]
rate of reaction with silver ion relative to cystine [4]: 267 times

Nc1ncnc2c1ncn2[C@@H]1O[C@H](CSCC[C@H](N)C(=O)O)[C@@H](O)[C@H]1O [S-adenosylhomocysteine]
inhibition of cellular methylations (cellular methylations): potent inhibitor of cellular methylations
inhibition of cellular methylations (cellular methylations; listed as Adenosylhomocysteine): potent inhibitor of cellular methylation processes

Nc1ccn([C@@H]2O[C@H](CO)[C@@H](O)[C@H]2O)c(=O)n1 [Cytidine]
protection from growth inhibition by copper-SMETH (L1210 cells [1]): protected the cells from growth inhibition, and this protection was non-competitive
